From patent US8741347B2, “Method for forming cyclodextrin polymer and lipophilic compound emulsions, resulting emulsions, and compositions including said emulsions” (Centre National de la Recherche Scientifique—CNRS, priority 2009, dated 2014) come the findings set out here.

A short description of series [1]: Emulsion formation and stability over time, optical microscopy observation on storage. In kind it is physicochemical. Particulars: cyclodextrin monomer 17 mg/ml in water + 10 mg Parsol MCX per ml, pulsed sonication 40 s, stored at 25° C. with tangential agitation. On the procedure: The α-, β- or γ-cyclodextrin monomers are placed in solution in water at a concentration of 17 mg/ml. 10 mg of Parsol® MCX are added to 1 ml of the aqueous solution of α-, β- or γ-cyclodextrin thus prepared. The mixture is then subjected to pulsed sonication for 40 seconds in an ice-cold bath (0° C.). The resulting product is stored at 25° C. with tangential agitation.
The α-, β- or γ-cyclodextrin dimers/trimers are put into solution in water. 10 mg of Parsol® MCX are added to 1 ml of the aqueous solution of α-, β- or γ-cyclodextrin dimer/trimer thus prepared. The mixture is then subjected to pulsed sonication for 40 seconds in an ice-cold bath (0° C.). The resulting product is stored at 25° C. with tangential agitation.
The resulting emulsions are conditioned for storage at 25° C., with tangential agitation, at 37° C. or 4° C. for a varying period ranging from a few days up to a few months before use.
Emulsions (a) to (c) are formed by pulsed sonication for a period of 40 seconds and stored at 25° C.

Series [2] is described as follows: Interfacial rheology, interfacial tension by the drop method (Tracker). In kind it is physicochemical. On the procedure: The interface (oil/aqueous solution of polymer) elastic behavior is measured from the variation in interfacial tension. The apparatus used for measuring the elastic properties is a Tracker®, manufactured by the company […] Concept. The interfacial tension is measured by the drop method. A deformation of the interfacial area by dilation or by contraction of the volume of the drop creates a variation in the interfacial concentration of the polymers adsorbed at the interface. The Tracker® records the response of the interfacial tension and subsequently establishes the relationship between the deformation of the interface and this response, which describes the rheological behavior of the interface. A deformation of the interfacial area is repeated over time by imposing a sinusoidal variation in the volume of the drop, and thus makes it possible to establish the viscoelastic characteristics of the interface. […] The drop is formed at the end of the capillary connected to a syringe, the plunger of which is controlled by a motor. The needle used has a 180° curve in order to have a rising drop, the density of the oils being in this case lower than that of the aqueous phase. The gauge of the needle is 18, which corresponds to an internal diameter of 0.84 mm and an external diameter of 1.27 mm. The needle is made of Teflon in order to avoid wetting of the drop on the walls of the needle. […]

On to `OC[C@H]1O[C@@H]2O[C@H]3[C@H](O)[C@@H](O)[C@@H](O[C@H]4[C@H](O)[C@@H](O)[C@@H](O[C@H]5[C@H](O)[C@@H](O)[C@@H](O[C@H]6[C@H](O)[C@@H](O)[C@@H](O[C@H]7[C@H](O)[C@@H](O)[C@@H](O[C@H]1[C@H](O)[C@H]2O)O[C@@H]7CO)O[C@@H]6CO)O[C@@H]5CO)O[C@@H]4CO)O[C@@H]3CO` [α-cyclodextrin monomers, α-cyclodextrin], for which the figures for the “outcome of attempt to prepare an emulsion” value (shortened to “outcome of attempt”) in series [1] and in series [1] (listed as α-monomers) were “formation of an insoluble precipitate” and “an insoluble precipitate is formed as early as the first day (day zero)”, respectively.
As for `OC[C@H]1O[C@@H]2O[C@H]3[C@H](O)[C@@H](O)[C@@H](O[C@H]4[C@H](O)[C@@H](O)[C@@H](O[C@H]5[C@H](O)[C@@H](O)[C@@H](O[C@H]6[C@H](O)[C@@H](O)[C@@H](O[C@H]7[C@H](O)[C@@H](O)[C@@H](O[C@H]8[C@H](O)[C@@H](O)[C@@H](O[C@H]1[C@H](O)[C@H]2O)O[C@@H]8CO)O[C@@H]7CO)O[C@@H]6CO)O[C@@H]5CO)O[C@@H]4CO)O[C@@H]3CO` [β-cyclodextrin monomers, β-cyclodextrin], the “outcome of attempt” value in series [1] is listed as “formation of an insoluble precipitate”; in series [1] (listed as β-monomers), “an insoluble precipitate is formed as early as the first day (day zero)”. The “behaviour of the oil/aqueous solution interface” value in series [2] (squalene (borage, ginger) drop in aqueous cyclodextrin solution) was “formation of a rigid membrane at the surface of the squalene drop”.
On to `OC[C@H]1O[C@@H]2O[C@H]3[C@H](O)[C@@H](O)[C@@H](O[C@H]4[C@H](O)[C@@H](O)[C@@H](O[C@H]5[C@H](O)[C@@H](O)[C@@H](O[C@H]6[C@H](O)[C@@H](O)[C@@H](O[C@H]7[C@H](O)[C@@H](O)[C@@H](O[C@H]8[C@H](O)[C@@H](O)[C@@H](O[C@H]9[C@H](O)[C@@H](O)[C@@H](O[C@H]1[C@H](O)[C@H]2O)O[C@@H]9CO)O[C@@H]8CO)O[C@@H]7CO)O[C@@H]6CO)O[C@@H]5CO)O[C@@H]4CO)O[C@@H]3CO` [γ-cyclodextrins, γ-cyclodextrin], for which the “outcome of attempt” value in series [1] was “formation of an emulsion (for two days) and then a precipitation”; in series [1] (listed as γ-monomer), “initially forms an emulsion and then precipitates rapidly (two days)”.
With `CC(C)=CCC/C(C)=C/CC/C(C)=C/CC/C=C(\C)CC/C=C(\C)CCC=C(C)C` [squalene], the interfacial tension result in series [2] (oil drop in aqueous poly-β-CD solution) is on record as “approximately 12 mN/m”.
